Experimental data published in patent US20170354726A1, “CANCER PEPTIDE VACCINE” (Green Peptide Co., Ltd., priority 2010, published 2017).
Ends that are not written are not given here.

Columns and labels:
Format in all cases: in vivo, human
[1] = tested on: antibody to a peptide in the peripheral blood of glioblastoma patients; test: Antibody to peptide in plasma (FIU, Luminex) of glioblastoma patients; conditions: brain tumor, patients given this peptide
Experimental: (§1) An antibody to a peptide in the peripheral blood of patient was measured using a multiplex technology provided by Luminex Corporation by a method as described in Japanese Patent No. 3960614 (incorporated herein by reference) using each of the powdered peptides of SEQ ID NOS: 1 to 14. More specifically, a carrier was prepared in which each peptide was immobilized on the surface of micro beads (Luminex Corporation) after dissolving the powdered peptide in DMSO. Subsequently, plasma (heparin blood) obtained by blood collection from the patient was mixed with the immobilized carrier to react the antibody contained in the plasma with the peptide immobilized on the carrier. Then, the immobilized carrier was recovered after reaction; the antibody in the peripheral blood of the patient, bound to the peptide on the support was fluorescently labeled using a biotinylated anti-human antibody (Vector Corporation) and an avidinylated fluorescent dye (Streptavidin-PE, Invitrogen Corporation); and the fluorescence intensity (FIU) thereof was measured.
(§2) Similarly, for glioblastoma patients, the average of IFN-γ values or FIU was calculated in the 1 mg administration group (level I) and the 3 mg administration group (level II) to analyze the relationship between the dose and the immunological response.
(§3) Similarly, for glioblastoma patients, the averages of IFN-γ values and FIU obtained from the plasma or PBMC obtained at the end of each course from before administration to the 2nd course were calculated in the 1 mg administration group (level I) and the group of administration of 3 mg or more (level II) to analyze the relationship between the number of times of administration and the immunological response. The “Number of times of administration” in the table and the figure is the total number of times of administration at the end of each course, and the number of times of administration per course is 6.

[2] = tested on: CTL in PBMC of glioblastoma patients, HLA-A24 positive target cells presenting the administered peptide; test: Measurement of CTL activity (IFN-γ) in PBMC of glioblastoma patients; conditions: brain tumor; for CTL (IFN) Post Average: patients given this peptide
Experimental: (§4) PBMC was separated from the peripheral blood obtained by blood collection at the start of administration and at the end of each course for lyophilization, and CTL activity was measured using all PBMC by a known method (Hida N, Maeda Y, Katagiri K, Takasu H, Harada M, Itoh K., A simple culture protocol to detect peptide-specific cytotoxic T lymphocyte precursors in circulation. Cancer Immunol Immunotherapy 2002; 51: 219-228 (incorporated herein by reference)) after the end of administration. First, PBMC was cultured in the presence of each administered peptide for 2 weeks, and the PBMC was co-cultured with HLA-A24 positive target cells presenting the administered peptide via HLA molecules. Then, CTL activity was measured by measuring IFN-γ secreted into the culture supernatant by the reaction of CTL in PBMC with the target cells. The co-culture was performed under 4 independent conditions for each peptide; 4 values were obtained for each peptide for each PBMC obtained by each blood collection; and the total of the 4 values was used as a value (pg/mL) of IFN-γ for analysis to be described later.
as §2, §3

[3] = tested on: CTL in PBMC of HRPC patients, HLA-A24 positive target cells presenting the administered peptide; test: Measurement of CTL activity (IFN-γ) in PBMC of HRPC patients; conditions: for reactivity of CTL (and antibody) to the peptide, in words: HRPC patients; for IFN post average/average no. of times of administration / CTL (IFN) Post Average: prostate cancer; for CTL (IFN) Post Average: patients given this peptide
Experimental: as §4
(§5) For HRPC patients, the average of IFN-γ values or FIU was calculated in the 1 mg administration group (level I), the 3 mg administration group (level II), and the 5 mg administration group (level III) to analyze the relationship between the dose and the immunological response.
(§6) For HRPC patients, the averages of IFN-γ values and FIU obtained from the plasma or PBMC obtained at the end of each course from before administration to the 6th course were calculated in the 1 mg administration group and the group of administration of 3 mg or more to analyze the relationship between the number of times of administration and the immunological response. The “Number of times of administration” in the table and the figure is the total number of times of administration at the end of each course, and the number of times of administration per course is 6.
Since the initial peptide reselection was performed at the end of the 1st course, the averages of measurements after the reselection (values measured at the end of the 2nd course and later) are shown in the table and the figure. The “Number of times of administration” in the table and the figure is the total number of times of administration at the end of each course, and the number of times of administration per course is 6.

[4] = tested on: antibody to a peptide in the peripheral blood of HRPC patients; test: Antibody to peptide in plasma (FIU, Luminex) of HRPC patients; conditions: prostate cancer, patients given this peptide
Experimental: as §1, with “More” for “An antibody to a peptide in the peripheral blood of patient was measured using a multiplex technology provided by Luminex Corporation by a method as described in Japanese Patent No. 3960614 (incorporated herein by reference) using each of the powdered peptides of SEQ ID NOS: 1 to 14. More”
as §5, §6

Sequence | Ab Post Average (FIU after peptide administration) [1] | IFN post average/average no. of times of administration [2] | CTL (IFN) Post Average [2] | reactivity of CTL (and antibody) to the peptide, in words [3] | IFN post average/average no. of times of administration [3] | CTL (IFN) Post Average [3] | Ab Post Average (FIU after peptide administration) [4]
AYDFLYNYL [GP-113] | 67 FIU | 357 | 5,139 pg/mL | low values of CTL activation | 67 | 600 pg/mL | 207 FIU
DYLRSVLEDF [GP-105] | 3,969 FIU | 180 | 2,706 pg/mL |  | 229 | 5,274 pg/mL | 13,096 FIU
DYSARWNEI [GP-112] | 1,338 FIU | 92 | 1,308 pg/mL | low values of CTL activation | 76 | 459 pg/mL | 53 FIU
DYVREHKDNI [GP-101] |  |  |  | lower in the CTL reactivity than other peptides | 7 | 129 pg/mL | 16,491 FIU
HYRKWIKDTI [GP-109] |  |  |  | lowly increased the CTL activity | 22 | 494 pg/mL | 11,672 FIU
HYTNASDGL [GP-103] |  |  |  | did not increase the reactivity of antibody and CTL | 8 | 100 pg/mL | 22 FIU
LYAWEPSFL [GP-106] | 297 FIU | 174 | 3,134 pg/mL |  | 841 | 22,699 pg/mL | 20,080 FIU
LYCESVHNF [GP-108] |  |  |  |  | 72 | 2,209 pg/mL | 19,039 FIU
NYSVRYRPGL [GP-107] | 302 FIU | 8 | 151 pg/mL | lowly increased the CTL activity | 27 | 370 pg/mL | 2,888 FIU
RYLTQETNKV [GP-111] | 241 FIU | 400 | 3,001 pg/mL |  | 207 | 5,576 pg/mL | 11,125 FIU
TFDYLRSVL [GP-104] | 920 FIU | 187 | 2,986 pg/mL |  | 144 | 3,629 pg/mL | 11,538 FIU
TYSVSFDSL [GP-110] |  |  |  | increased the CTL value | 365 | 2,190 pg/mL | 310 FIU
VYDYNCHVDL [GP-114] | 297 FIU | 82 | 821 pg/mL |  | 547 | 4,592 pg/mL | 10,557 FIU
